Source: PubChem BioAssay AID220 (DTP/NCI, 2004)
“And” between values parts separate entries of the source, which are not always exact repeats. Identical values can stand only once. Results filed as inconclusive are left out.

Test system: CD8F1 mice, subcutaneous mammary adenocarcinoma, T/C%
Experiment: NCI In Vivo Anticancer Drug Screen. Data for tumor model Mammary Adenocarcinoma CD8F1 (subcutaneous) in CD8F1
Conditions: higher = larger tumour
How it was run: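 Ratio of treated to vehicle-control outcome, based on either survival or tumor size, in mice bearing transplantable tumors given the test compound.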

[1] = endpoint: median tumor weight change, dose: 125.0 mg/kg/injection, schedule: Q01DX001 (ip), vehicle: saline with Tween-80
[2] = endpoint: median tumor weight (est.), dose: 100.0 mg/kg/injection, schedule: Q07DX005 (ip), vehicle: saline
[3] = endpoint: median tumor weight change, dose: 31.25 mg/kg/injection, schedule: Q01DX001 (ip), vehicle: Klucel (hydroxypropylcellulose) (HPC)
[4] = endpoint: median tumor weight change, dose: 62.5 mg/kg/injection, schedule: Q01DX001 (ip), vehicle: Klucel (hydroxypropylcellulose) (HPC)

Q: For NC(=S)N/N=C/c1ccc(OC(=O)COc2ccc(Cl)cc2)cn1, which T/C (endpoint: mean tumor weight, dose: 25.0 mg/kg/injection, schedule: Q07DX008 (ip), vehicle: saline) is on record?
A: 100 % of control

Q: And the T/C (endpoint: mean tumor weight, dose: 50.0 mg/kg/injection, schedule: Q07DX008 (ip), vehicle: saline)?
A: 50 % of control

Q: What about the T/C (endpoint: mean tumor weight, dose: 100.0 mg/kg/injection, schedule: Q07DX008 (ip), vehicle: saline) of the same molecule?
A: 64 % of control

Q: And the T/C (endpoint: mean tumor weight, dose: 200.0 mg/kg/injection, schedule: Q07DX008 (ip), vehicle: saline)?
A: 60 % of control

Q: And the T/C (endpoint: mean tumor weight, dose: 400.0 mg/kg/injection, schedule: Q07DX008 (ip), vehicle: saline)?
A: 105 % of control

Q: And the T/C (endpoint: median tumor weight (est.), dose: 12.5 mg/kg/injection, schedule: Q07DX005 (ip), vehicle: saline with Tween-80)?
A: 52 % of control

Q: What about the T/C (endpoint: median tumor weight (est.), dose: 25.0 mg/kg/injection, schedule: Q07DX005 (ip), vehicle: saline with Tween-80) of the same molecule?
A: 167 % of control

Q: And the T/C (endpoint: median tumor weight (est.), dose: 50.0 mg/kg/injection, schedule: Q07DX005 (ip), vehicle: saline with Tween-80)?
A: 79 % of control

Q: And the T/C (endpoint: median tumor weight (est.), dose: 100.0 mg/kg/injection, schedule: Q07DX005 (ip), vehicle: saline with Tween-80)?
A: 114 % of control

Q: And the T/C (endpoint: median tumor weight (est.), dose: 200.0 mg/kg/injection, schedule: Q07DX005 (ip), vehicle: saline with Tween-80)?
A: 82 % of control

Q: What about the T/C (endpoint: median tumor weight (est.), dose: 400.0 mg/kg/injection, schedule: Q07DX005 (ip), vehicle: saline with Tween-80) of the same molecule?
A: 119 % of control

Q: With CN1C(=O)NC(c2ccc(Cl)cc2)(c2ccc(Cl)cc2)C1=O as the molecule, how does the T/C (endpoint: median tumor weight change, dose: 125.0 mg/kg/injection, schedule: Q01DX001 (ip), vehicle: distilled water + Tween-80) read?
A: 98 % of control

Q: What about the T/C (endpoint: median tumor weight change, dose: 250.0 mg/kg/injection, schedule: Q01DX001 (ip), vehicle: distilled water + Tween-80) of the same molecule?
A: 80 % of control

Q: What about the T/C (endpoint: median tumor weight change, dose: 500.0 mg/kg/injection, schedule: Q01DX001 (ip), vehicle: distilled water + Tween-80) of the same molecule?
A: 70 % of control

Q: What about the T/C (endpoint: median tumor weight change, dose: 1000.0 mg/kg/injection, schedule: Q01DX001 (ip), vehicle: distilled water + Tween-80) of the same molecule?
A: 40 % of control

Q: Which results are given for CCCN1COC(OCC)C(C)(C)C1 (centres undefined)?
A: T/C (endpoint: median tumor weight change, dose: 50.0 mg/kg/injection, schedule: Q01DX001 (ip), vehicle: saline with Tween-80): 102 % of control; T/C (endpoint: median tumor weight change, dose: 100.0 mg/kg/injection, schedule: Q01DX001 (ip), vehicle: saline with Tween-80): 85 % of control; T/C [1]: 66 % of control; T/C (endpoint: median tumor weight change, dose: 200.0 mg/kg/injection, schedule: Q01DX001 (ip), vehicle: saline with Tween-80): 84 % of control; T/C (endpoint: median tumor weight change, dose: 250.0 mg/kg/injection, schedule: Q01DX001 (ip), vehicle: saline with Tween-80): 47 % of control; T/C (endpoint: median tumor weight change, dose: 500.0 mg/kg/injection, schedule: Q01DX001 (ip), vehicle: saline with Tween-80): 47 % of control

Q: Which T/C (endpoint: median tumor weight change, dose: 125.0 mg/kg/injection, schedule: Q01DX001 (ip), vehicle: distilled water + alcohol) does the source give for Cc1cc(=NO)cc(C)n1O here?
A: 52 % of control and 77 % of control

Q: What about the T/C (endpoint: median tumor weight change, dose: 250.0 mg/kg/injection, schedule: Q01DX001 (ip), vehicle: distilled water + alcohol) of the same molecule?
A: 78 % of control and 80 % of control

Q: And the T/C (endpoint: median tumor weight change, dose: 500.0 mg/kg/injection, schedule: Q01DX001 (ip), vehicle: distilled water + alcohol)?
A: 69 % of control and 78 % of control

Q: CC(=O)CC(C)=O.CC(=O)CC(C)=O.O=N[O-].O=N[O-].[Co] was tested. Which T/C (endpoint: median tumor weight change, dose: 62.5 mg/kg/injection, schedule: Q01DX001 (ip), vehicle: saline with Tween-80) did it give?
A: 96 % of control

Q: And the T/C [1]?
A: 38 % of control

Q: What does the source list for CC1CN1P1(N2CC2C)=NP(N2CC2C)(N2CC2C)=NP(N2CC2C)(N2CC2C)=N1 (centres undefined)?
A: T/C (endpoint: mean tumor weight, dose: 12.5 mg/kg/injection, schedule: Q04DX005 (ip), vehicle: saline): 61 % of control; T/C (endpoint: mean tumor weight, dose: 25.0 mg/kg/injection, schedule: Q04DX005 (ip), vehicle: saline): 97 % of control; T/C (endpoint: mean tumor weight, dose: 25.0 mg/kg/injection, schedule: Q07DX005 (ip), vehicle: saline): 119 % of control; T/C (endpoint: mean tumor weight, dose: 50.0 mg/kg/injection, schedule: Q04DX005 (ip), vehicle: saline): 66 % of control; T/C (endpoint: mean tumor weight, dose: 50.0 mg/kg/injection, schedule: Q07DX005 (ip), vehicle: saline): 92 % of control; T/C (endpoint: mean tumor weight, dose: 100.0 mg/kg/injection, schedule: Q04DX005 (ip), vehicle: saline): 13 % of control; T/C (endpoint: mean tumor weight, dose: 100.0 mg/kg/injection, schedule: Q07DX005 (ip), vehicle: saline): 49 % of control; T/C (endpoint: median tumor weight (est.), dose: 25.0 mg/kg/injection, schedule: Q07DX005 (ip), vehicle: saline): 70 % of control; T/C [2]: 6 % of control and 11 % of control

Q: For Cc1c(-c2ccc(-c3ccccc3F)cc2)nc2ccc(F)cc2c1C(=O)O, which T/C (endpoint: median tumor weight change, dose: 5.6 mg/kg/injection, schedule: Q01DX005 (ip), vehicle: water) is on record?
A: 53 % of control

Q: And the T/C (endpoint: median tumor weight change, dose: 11.25 mg/kg/injection, schedule: Q01DX005 (ip), vehicle: water)?
A: 33 % of control

Q: What about the T/C (endpoint: median tumor weight change, dose: 19.0 mg/kg/injection, schedule: Q01DX005 (ip), vehicle: water) of the same molecule?
A: 74 % of control

Q: What about the T/C (endpoint: median tumor weight change, dose: 22.5 mg/kg/injection, schedule: Q01DX005 (ip), vehicle: water) of the same molecule?
A: 29 % of control

Q: What about the T/C (endpoint: median tumor weight change, dose: 32.4 mg/kg/injection, schedule: Q01DX005 (ip), vehicle: water) of the same molecule?
A: 13 % of control

Q: And the T/C (endpoint: median tumor weight change, dose: 45.0 mg/kg/injection, schedule: Q01DX001 (ip), vehicle: water)?
A: 56 % of control

Q: What about the T/C (endpoint: median tumor weight change, dose: 45.0 mg/kg/injection, schedule: Q01DX005 (ip), vehicle: water) of the same molecule?
A: 24 % of control

Q: What about the T/C (endpoint: median tumor weight change, dose: 54.0 mg/kg/injection, schedule: Q01DX005 (ip), vehicle: water) of the same molecule?
A: 27 % of control

Q: What about the T/C (endpoint: median tumor weight change, dose: 90.0 mg/kg/injection, schedule: Q01DX001 (ip), vehicle: water) of the same molecule?
A: 82 % of control

Q: What about the T/C (endpoint: median tumor weight change, dose: 90.0 mg/kg/injection, schedule: Q01DX005 (ip), vehicle: water) of the same molecule?
A: 15 % of control and 20 % of control

Q: Which results are given for CN(C)C=O?
A: T/C [2]: 78 % of control; T/C (endpoint: median tumor weight (est.), dose: 400.0 mg/kg/injection, schedule: Q07DX005 (ip), vehicle: saline): 105 % of control; T/C (endpoint: median tumor weight (est.), dose: 800.0 mg/kg/injection, schedule: Q07DX005 (ip), vehicle: saline): 96 % of control

Q: CCCCCCCCCCCCCCC/C([O-])=N/[N+](C)(C)CC(C)O (centres undefined) was tested. Which T/C (endpoint: median tumor weight change, dose: 125.0 mg/kg/injection, schedule: Q01DX001 (ip), vehicle: saline) did it give?
A: 49 % of control

Q: And the T/C (endpoint: median tumor weight change, dose: 250.0 mg/kg/injection, schedule: Q01DX001 (ip), vehicle: saline)?
A: 96 % of control

Q: And the T/C (endpoint: median tumor weight change, dose: 500.0 mg/kg/injection, schedule: Q01DX001 (ip), vehicle: saline)?
A: 69 % of control

Q: What does the source list for CCCCCC[Se][Se]CCCCCC?
A: T/C [3]: 116 % of control; T/C [4]: 159 % of control

Q: What does the source list for Cn1cnc([N+](=O)[O-])c1S(=O)(=O)NCN1CCOCC1?
A: T/C (endpoint: median tumor weight (est.), dose: 12.5 mg/kg/injection, schedule: Q07DX005 (ip), vehicle: Klucel (hydroxypropylcellulose) (HPC)): 103 % of control; T/C (endpoint: median tumor weight (est.), dose: 25.0 mg/kg/injection, schedule: Q07DX005 (ip), vehicle: Klucel (hydroxypropylcellulose) (HPC)): 164 % of control and 185 % of control; T/C (endpoint: median tumor weight (est.), dose: 50.0 mg/kg/injection, schedule: Q07DX005 (ip), vehicle: Klucel (hydroxypropylcellulose) (HPC)): 71 % of control; T/C (endpoint: median tumor weight (est.), dose: 100.0 mg/kg/injection, schedule: Q07DX005 (ip), vehicle: Klucel (hydroxypropylcellulose) (HPC)): 82 % of control and 95 % of control

Q: With NC(Cc1cc([N+](=O)[O-])ccc1CN(CCCl)CCCl)C(=O)O (centres undefined) as the molecule, how does the T/C (endpoint: median tumor weight (est.), dose: 2.0 mg/kg/injection, schedule: Q07DX005 (ip), vehicle: Klucel (hydroxypropylcellulose) (HPC)) read?
A: 8 % of control

Q: Which T/C (endpoint: median tumor weight (est.), dose: 0.06 mg/kg/injection, schedule: Q07DX005 (ip), vehicle: saline) does the source give for CCCCCCCCCCCCCCCC(=O)O[C@@]12C[C@@H](C)[C@@]3(O)[C@@H](C=C(CO)C[C@]4(O)C(=O)C(C)=C[C@@H]34)[C@@H]1C2(C)C here?
A: 84 % of control

Q: What about the T/C (endpoint: median tumor weight (est.), dose: 0.12 mg/kg/injection, schedule: Q07DX005 (ip), vehicle: saline) of the same molecule?
A: 68 % of control

Q: What about the T/C (endpoint: median tumor weight (est.), dose: 0.25 mg/kg/injection, schedule: Q07DX005 (ip), vehicle: saline) of the same molecule?
A: 62 % of control

Q: What about the T/C (endpoint: median tumor weight (est.), dose: 0.5 mg/kg/injection, schedule: Q07DX005 (ip), vehicle: saline) of the same molecule?
A: 97 % of control

Q: And the T/C (endpoint: median tumor weight (est.), dose: 1.0 mg/kg/injection, schedule: Q07DX005 (ip), vehicle: saline)?
A: 68 % of control

Q: CCOC(=O)Nc1cc2c(c(N)n1)N=C(c1ccccc1)CN2 was tested. Which T/C (endpoint: median tumor weight change, dose: 6.25 mg/kg/injection, schedule: Q01DX001 (ip), vehicle: saline with Tween-80) did it give?
A: 86 % of control

Q: And the T/C (endpoint: median tumor weight change, dose: 12.5 mg/kg/injection, schedule: Q01DX001 (ip), vehicle: saline with Tween-80)?
A: 35 % of control

Q: What does the source list for CCCCC1CCCCCCc2[nH]c(/C=C3\N=C(c4ccc[nH]4)C=C3OC)cc21 (centres undefined)?
A: T/C (endpoint: median tumor weight change, dose: 0.38 mg/kg/injection, schedule: Q01DX001 (ip), vehicle: saline with Tween-80): 92 % of control; T/C (endpoint: median tumor weight change, dose: 0.75 mg/kg/injection, schedule: Q01DX001 (ip), vehicle: saline with Tween-80): 78 % of control; T/C (endpoint: median tumor weight change, dose: 1.5 mg/kg/injection, schedule: Q01DX001 (ip), vehicle: saline with Tween-80): 104 % of control; T/C (endpoint: median tumor weight change, dose: 3.0 mg/kg/injection, schedule: Q01DX001 (ip), vehicle: saline with Tween-80): 102 % of control

Q: With CC(=O)Nc1ccc(/C=N/NC(N)=S)cc1 as the molecule, how does the T/C [3] read?
A: 96 % of control

Q: What about the T/C [4] of the same molecule?
A: 84 % of control

Q: What about the T/C (endpoint: median tumor weight change, dose: 125.0 mg/kg/injection, schedule: Q01DX001 (ip), vehicle: Klucel (hydroxypropylcellulose) (HPC)) of the same molecule?
A: 103 % of control

Q: What about the T/C (endpoint: median tumor weight change, dose: 250.0 mg/kg/injection, schedule: Q01DX001 (ip), vehicle: Klucel (hydroxypropylcellulose) (HPC)) of the same molecule?
A: 48 % of control

Q: And the T/C (endpoint: median tumor weight change, dose: 500.0 mg/kg/injection, schedule: Q01DX001 (ip), vehicle: Klucel (hydroxypropylcellulose) (HPC))?
A: 99 % of control
